System: MIA-PACA2 pancreatic cancer cell lines
Experiment: Cell proliferation assay (CellTiter 96 AQueous One)
Assay type: cell-based
Settings: Homo sapiens, MIA PaCa-2; MIA-PACA2, same assay as the % inhibition (standard conditions)
Experimental: Cell lines: Tumor-derived pancreatic cancer cell lines MIA-PACA2 were purchased from ATCC and grown in complete DMEM-High Glucose medium supplemented with penicillin (100 U/mL), streptomycin (100 μg/mL), and 10% heat-inactivated FBS at 37° C. in a humidified incubator with 5% CO2.
Method: Cells are plated at 1000 cells/well density in 96-wells plate, starved ON, and the next day tested small molecules are added to the cells in the final concentration of 30 μM with 0.3% DMSO 3 hours prior to 10% FBS addition. After serum addition cells are incubated for 6 days at 37° C. in a humidified incubator with 5% CO2. For IC50 value determination, serial dilutions of compounds were added to cells under the same conditions.
Assay: At the end of the incubation period, cell cultures are tested using the CellTiter 96® AQueous One Solution Cell Proliferation Assay kit (Promega Corporation, Madison, Wis.) according to the manufacturer specifications. Briefly, assay is performed by adding 20 μl of the CellTiter 96 Aqueous One Solution Reagent directly to culture wells, followed by for 1-4 hours incubation at 37° C. in a humidified incubator with 5% CO2. At the end of incubation time, absorbance at 492 nm is recorded with the 96-well plate reader Eppendorf AF2200, and degree of small molecule-dependent proliferation inhibition is calculated from raw data assuming No Serum cells value as 100%.

`COc1ccnc(-c2nc(O)c3c(Br)csc3n2)c1` [drawing 1637] and `Oc1nc(-c2ccccn2)nc2scc(Br)c12` [drawing 1589] fall in the same range of IC50: 100 to 500 nM for the first, 100 to 500 nM for the second.

Same assay, conditions: Homo sapiens, MIA PaCa-2; at 30 μM, MIA-PACA2

`COc1ccc(OCc2nc(CNCCc3nnc4n3CCC4)cs2)cc1` [drawing 1472] and `COc1ccc(COCC(=O)N2CCCc3c(O)nc(-c4ccccn4)nc32)cc1` [drawing 1544] fall in the same range of inhibition at 30 µM: 76 to 100% for the first, 76 to 100% for the second.

First: COCCCCNC(=O)c1csc2nc(-c3ccccn3)nc(N3CCS(=O)(=O)CC3)c12 [drawing 1702]
Second: COCCCCN(C)C(=O)c1csc2nc(-c3ccccn3)nc(N3CCOCC3)c12 [drawing 1683]
The inhibition at 30 µM of the first is lower: 1 to 25% for the first, 76 to 100% for the second.

`COc1ccc(C(=O)Nc2nc(-c3ccccn3)cs2)cn1` [drawing 1488] and `O=C(Nc1nc(-c2ccccn2)cs1)c1cccnc1` [drawing 1483] fall in the same range of inhibition at 30 µM: 76 to 100% for the first, 76 to 100% for the second.

`O=C(c1csc2c(O)nc(-c3ccccn3)nc12)N1CCN(Cc2cccc(O)c2)CC1` [drawing 1634] and `O=C(c1csc2c(O)nc(-c3ccccn3)nc12)N1CCN(c2ccc(F)cc2F)CC1` [drawing 1653] fall in the same range of inhibition at 30 µM: 76 to 100% for the first, 76 to 100% for the second.

First: O=C(NCCc1cccnc1)c1cc2nc(-c3ccccn3)nc(O)c2s1 [drawing 1719]
Second: O=C(O)c1cc2nc(-c3ccccn3)nc(O)c2s1 [drawing 1726]
The inhibition at 30 µM of the first is higher: 76 to 100% for the first, 51 to 75% for the second.

First: O=C(COCc1ccccc1Cl)Nc1nnc(-c2ccccn2)[nH]1 [drawing 1431]
Second: COc1cccc(COCC(=O)Nc2nnc(-c3ccccn3)[nH]2)c1 [drawing 1446]
The inhibition at 30 µM of the first is higher: 76 to 100% for the first, 51 to 75% for the second.

First: O=C(Nc1nnc(-c2ccccn2)[nH]1)C1Cc2cc(Cl)ccc2O1 (stereo not drawn) [drawing 1459]
Second: O=C(Nc1nnc(-c2ccccn2)[nH]1)C1Cc2ccccc2O1 (stereo not drawn) [drawing 1422]
The inhibition at 30 µM of the first is higher: 76 to 100% for the first, 1 to 25% for the second.

First: Cc1cccc(C)c1OCCOC(=O)c1ccccc1SCCOc1c(C)cccc1C [drawing 1541]
Second: CCOc1cc(S(=O)(=O)N(Cc2ccccc2)Cc2ccccc2)c(OCC)cc1C [drawing 1529]
The inhibition at 30 µM of the first is lower: 51 to 75% for the first, 76 to 100% for the second.

First: COc1nccc(CCNC(=O)c2csc3nc(-c4ccccn4)nc(N4CCOCC4)c23)n1 [drawing 1773]
Second: COc1ccc(CCNC(=O)c2csc3nc(-c4ccccn4)nc(N4CCOCC4)c23)cn1 [drawing 1639]
The inhibition at 30 µM of the first is higher: 76 to 100% for the first, 51 to 75% for the second.

`c1ccc(-c2csc3nc(-c4ccccn4)nc(N4CCOCC4)c23)cc1` [drawing 1618] and `OC1CCCN(c2nc(-c3ccccn3)nc3scc(-c4ccccc4)c23)C1` (stereo not drawn) [drawing 1617] fall in the same range of inhibition at 30 µM: 76 to 100% for the first, 76 to 100% for the second.

Compared with `CS(=O)(=O)c1cccc(C(=O)N2CCCc3c(O)nc(-c4ccccn4)nc32)c1` [drawing 1549], `O=S(=O)(c1ccccc1)N1CCCc2c(O)nc(-c3ccccn3)nc21` [drawing 1553] is higher in inhibition at 30 µM: 1 to 25% for the first, 25 to 50% for the second.

Compared with `COc1cccc(CC2CN(C(=O)c3csc4c(O)nc(-c5ccccn5)nc34)CCN2)c1` (stereo not drawn) [drawing 1706], `O=C(c1csc2c(O)nc(-c3ccccn3)nc12)N1CCNC(Cc2cccc(F)c2)C1` (stereo not drawn) [drawing 1708] is higher in inhibition at 30 µM: 1 to 25% for the first, 25 to 50% for the second.

Compared with `O=C(COc1ccc2c(c1)CCC2)Nc1nnc(-c2ccccn2)[nH]1` [drawing 1438], `N#Cc1cccc(OCC(=O)Nc2nnc(-c3ccccn3)[nH]2)c1` [drawing 1435] is higher in inhibition at 30 µM: 1 to 25% for the first, 25 to 50% for the second.

Compared with `CN(CC(=O)Nc1nnc(-c2ccccn2)[nH]1)S(=O)(=O)c1ccccc1` [drawing 1467], `CN(CC(=O)Nc1nnc(-c2ccccn2)[nH]1)Cc1ccccc1` [drawing 1449] is higher in inhibition at 30 µM: 1 to 25% for the first, 51 to 75% for the second.

First: O=C(c1csc2c(O)nc(-c3ccccn3)nc12)N1CCNC(c2cn[nH]c2)C1 (stereo not drawn) [drawing 1734]
Second: O=C(c1csc2c(O)nc(-c3ccccn3)nc12)N1CCNC(c2ccc(F)cc2)C1 (stereo not drawn) [drawing 1700]
The inhibition at 30 µM of the first is lower: 1 to 25% for the first, 76 to 100% for the second.

Compared with `CC(C)(C(=O)Nc1nc(-c2ccccn2)nc2sccc12)c1ccc(C#N)cc1` [drawing 1646], `O=C(COCc1ccnc(O)c1)Nc1nc(-c2ccccn2)nc2sccc12` [drawing 1733] is lower in inhibition at 30 µM: 76 to 100% for the first, 51 to 75% for the second.

`CC(Oc1ccc(C#N)cc1)C(=O)Nc1nnc(-c2ccccn2)[nH]1` (stereo not drawn) [drawing 1437] and `CC(Oc1ccccc1Cl)C(=O)Nc1nnc(-c2ccccn2)[nH]1` (stereo not drawn) [drawing 1396] fall in the same range of inhibition at 30 µM: 76 to 100% for the first, 76 to 100% for the second.

First: CCN(CC)C(=O)CN1CCN(c2nc(-c3ccccn3)nc3scc(-c4ccccc4)c23)CC1 [drawing 1613]
Second: CNC(=O)CN1CCN(c2nc(-c3ccccn3)nc3scc(-c4ccccc4)c23)CC1 [drawing 1607]
The inhibition at 30 µM of the first is higher: 76 to 100% for the first, 1 to 25% for the second.

`Oc1nc(-c2ccccn2)nc2c(-c3ccccc3OC3CCCCC3)csc12` [drawing 1742] and `Oc1nc(-c2ccccn2)nc2c(-c3cc(F)ccc3OC(F)F)csc12` [drawing 1736] fall in the same range of inhibition at 30 µM: 76 to 100% for the first, 76 to 100% for the second.

`CCN(CC)CCC(C)Nc1nc(-c2ccccn2)nc2sccc12` (stereo not drawn) [drawing 1592] and `CC(Nc1nc(-c2ccccn2)nc2scc(-c3ccccc3)c12)c1nncn1C` (stereo not drawn) [drawing 1601] fall in the same range of inhibition at 30 µM: 76 to 100% for the first, 76 to 100% for the second.

Compared with `O=C(Cc1c[nH]c2ccccc12)Nc1nnc(-c2ccccn2)[nH]1` [drawing 1387], `O=C(CCc1c[nH]c2ccccc12)Nc1nnc(-c2ccccn2)[nH]1` [drawing 1400] is higher in inhibition at 30 µM: 1 to 25% for the first, 51 to 75% for the second.

`O=C(c1csc2c(O)nc(-c3ccccn3)nc12)N1CCOC(c2ccccc2)C1` (stereo not drawn) [drawing 1659] and `O=C(c1csc2c(O)nc(-c3ccccn3)nc12)N1CCOC(Cc2ccccc2)C1` (stereo not drawn) [drawing 1664] fall in the same range of inhibition at 30 µM: 76 to 100% for the first, 76 to 100% for the second.

Compared with `O=C(Nc1nnc(-c2ccccn2)[nH]1)c1ccc(NC(=O)c2ccccn2)cc1` [drawing 1440], `O=C(Nc1nnc(-c2ccccn2)[nH]1)c1ccn(-c2cccc(Cl)c2)n1` [drawing 1468] is higher in inhibition at 30 µM: 25 to 50% for the first, 76 to 100% for the second.

First: Cc1nc(-c2ccccn2)nc(O)c1CCC(=O)Nc1cc(F)ccc1F [drawing 1503]
Second: COc1ccc(CCC(=O)Nc2nnc(-c3ccccn3)[nH]2)cc1F [drawing 1385]
The inhibition at 30 µM of the first is higher: 76 to 100% for the first, 1 to 25% for the second.

`O=C(COc1ccccc1)N1CCCc2c(O)nc(-c3ccccn3)nc21` [drawing 1543] and `O=C(OCCc1ccccc1)N1CCCc2c(O)nc(-c3ccccn3)nc21` [drawing 1554] fall in the same range of inhibition at 30 µM: 76 to 100% for the first, 76 to 100% for the second.

`COc1ccnc(-c2nc(O)c3c(C#N)csc3n2)c1` [drawing 1675] and `COc1ccnc(-c2nc(O)c3c(Br)csc3n2)c1` [drawing 1637] fall in the same range of inhibition at 30 µM: 76 to 100% for the first, 76 to 100% for the second.

First: Cc1ccc(CC(=O)Nc2nnc(-c3ccccn3)[nH]2)cn1 [drawing 1419]
Second: N#CCc1ccc(OCC(=O)Nc2nnc(-c3ccccn3)[nH]2)cc1 [drawing 1462]
The inhibition at 30 µM of the first is higher: 51 to 75% for the first, 1 to 25% for the second.

`OCCn1ccc2c1CCCC2Nc1nc(-c2ccccn2)nc2scc(-c3ccccc3)c12` (stereo not drawn) and `CON(C)c1nc(-c2ccccn2)nc2scc(-c3ccccc3)c12` [drawing 1610] fall in the same range of inhibition at 30 µM: 76 to 100% for the first, 76 to 100% for the second.

First: CN(CCc1ccncc1)C(=O)c1csc2c(O)nc(-c3ccccn3)nc12 [drawing 1577]
Second: Oc1nc(-c2ccccn2)nc2c(-c3ccsc3)csc12 [drawing 1751]
The inhibition at 30 µM of the first is lower: 25 to 50% for the first, 76 to 100% for the second.

First: CC(C)(C)c1noc(CCC(=O)Nc2nnc(-c3ccccn3)[nH]2)n1 [drawing 1412]
Second: CCn1nnc2cc(C(=O)Nc3nnc(-c4ccccn4)[nH]3)ccc21 [drawing 1420]
The inhibition at 30 µM of the first is lower: 25 to 50% for the first, 51 to 75% for the second.

`COCCCC(=O)N1CCCc2c(O)nc(-c3ccccn3)nc21` [drawing 1550] and `O=C(c1ccn(-c2ccccc2)n1)N1CCCc2c(O)nc(-c3ccccn3)nc21` [drawing 1546] fall in the same range of inhibition at 30 µM: 76 to 100% for the first, 76 to 100% for the second.

`COc1ccc(-c2csc3[nH]c(-c4ccccn4)nc(=O)c23)cc1` [drawing 1489] and `Oc1nc(-c2ccccn2)nc2c(-c3ccc(Cl)c(Cl)c3)csc12` [drawing 1785] fall in the same range of inhibition at 30 µM: 76 to 100% for the first, 76 to 100% for the second.

`Cc1sc2c(O)nc(-c3ccccn3)nc2c1-c1cccnc1` [drawing 1790] and `Oc1nc(-c2ccccn2)nc2c(-c3cncc(F)c3)csc12` [drawing 1786] fall in the same range of inhibition at 30 µM: 76 to 100% for the first, 76 to 100% for the second.

First: Oc1nc(-c2ccccn2)nc2scc(Br)c12 [drawing 1589]
Second: O=C(c1csc2c(O)nc(-c3ccccn3)nc12)N1CCOC(CN2CCOCC2)C1 (stereo not drawn) [drawing 1698]
The inhibition at 30 µM of the first is higher: 76 to 100% for the first, 51 to 75% for the second.

First: O=C(Nc1nnc(-c2ccccn2)[nH]1)c1ccc(=O)n(CCOc2ccccc2)n1 [drawing 1463]
Second: O=C(Nc1nnc(-c2ccccn2)[nH]1)c1ccc(=O)[nH]n1 [drawing 1470]
The inhibition at 30 µM of the first is higher: 76 to 100% for the first, 25 to 50% for the second.

First: COc1ccc2c(c1)CCC2C(=O)Nc1ccnc(-c2ccccn2)n1 (stereo not drawn) [drawing 1688]
Second: CC(C)NC(=O)Nc1cccc(C(=O)Nc2nnc(-c3ccccn3)[nH]2)c1 [drawing 1384]
The inhibition at 30 µM of the first is higher: 76 to 100% for the first, 25 to 50% for the second.

`Cc1ccc(-c2ccc(Oc3ccc(C(F)(F)F)cn3)c(C)c2)cc1` [drawing 1526] and `Cc1cccc(CN(Cc2ccccn2)Cc2nccn2C)c1` [drawing 1519] fall in the same range of inhibition at 30 µM: 76 to 100% for the first, 76 to 100% for the second.

`Cc1nnc(C(Nc2nc(-c3ccccn3)nc3scc(-c4ccccc4)c23)c2ccccc2)n1C` (stereo not drawn) [drawing 1596] and `O=C(c1csc2c(O)nc(-c3ccccn3)nc12)N1CC2CC1CN2c1ccccc1` (stereo not drawn) [drawing 1714] fall in the same range of inhibition at 30 µM: 76 to 100% for the first, 76 to 100% for the second.
